Laboratory results taken from ChEMBL document CHEMBL1250522 (Bioorg Med Chem, 2010).

How the values were obtained:
[1] = Cytotoxicity against human wild type LCC-6 cells after 72 hrs by SRB assay; conditions: LCC-6, 72 h
A2780 = assay: Cytotoxicity against human A2780 cells after 72 hrs by SRB assay; type: functional, cell-based; conditions: A2780, 72 h
CFPAC-1 = assay: Cytotoxicity against human CFPAC-1 cells after 72 hrs by SRB assay; type: functional, cell-based; conditions: CFPAC-1, 72 h
MCF7 = assay: Cytotoxicity against human MCF7 cells after 72 hrs by SRB assay; type: functional, cell-based; conditions: MCF7, 72 h
[2] = Cytotoxicity against human multidrug-resistant LCC-6 cells after 72 hrs by SRB assay; conditions: LCC-6, 72 h
[3] = Cytotoxicity against human NCI/ADR cells after 72 hrs by SRB assay; conditions: NCI/ADR-RES

Row | SMILES | IC50 [1] [µM] | IC50 (A2780) [µM] | IC50 (CFPAC-1) [µM] | IC50 (MCF7) [µM] | IC50 [2] [µM] | IC50 [3] [µM]
1 | CC(=O)OCc1cccc2c1[C@H](OC(=O)c1ccccc1)[C@H]1C[C@H](OC(=O)[C@H](O)[C@@H](NC(=O)c3ccccc3)c3ccccc3)CN1C2=O | 36.3 | 7.8 | > 100 | 39.6 | > 100 | > 100
2 | O=C1CC/C=C\COc2ccccc2[C@H](NC(=O)c2ccccc2)[C@@H](O)C(=O)O[C@H]2C[C@@H]3[C@@H](OC(=O)c4ccccc4)c4c(cccc4C(=O)N3C2)CO1 | > 100 | 14.8 | > 100 | > 100 | > 100 | > 100
3 | CC(=O)OCc1cccc2c1[C@H](OC(=O)c1ccccc1)[C@H]1C[C@H](OC(=O)[C@H](O)[C@@H](NC(=O)c3ccccc3)c3ccccc3)CN1C(=O)C2 | 4.93 | 3.81 | 6.16 | 8.31 | 16.8 | 41.5
